Measured values: paper PMC12615753, “Glutathione as a taste modulator: molecular mechanisms of interaction with umami and sweet taste receptors” (Food Chemistry: Molecular Sciences, 2025)

Molecular target: T1, hTAS1R1 A170W/rTAS1R3 (UniProt Q7RTX1+Q923K1, A170W)
T1 construct: The cDNA coding region of rTAS1R3 was synthesized with optimized-codon usage for human expression; expressed in transfected cells; host or cells: HEK293T/17
T1 sequence (Q7RTX1 21-841 A170W): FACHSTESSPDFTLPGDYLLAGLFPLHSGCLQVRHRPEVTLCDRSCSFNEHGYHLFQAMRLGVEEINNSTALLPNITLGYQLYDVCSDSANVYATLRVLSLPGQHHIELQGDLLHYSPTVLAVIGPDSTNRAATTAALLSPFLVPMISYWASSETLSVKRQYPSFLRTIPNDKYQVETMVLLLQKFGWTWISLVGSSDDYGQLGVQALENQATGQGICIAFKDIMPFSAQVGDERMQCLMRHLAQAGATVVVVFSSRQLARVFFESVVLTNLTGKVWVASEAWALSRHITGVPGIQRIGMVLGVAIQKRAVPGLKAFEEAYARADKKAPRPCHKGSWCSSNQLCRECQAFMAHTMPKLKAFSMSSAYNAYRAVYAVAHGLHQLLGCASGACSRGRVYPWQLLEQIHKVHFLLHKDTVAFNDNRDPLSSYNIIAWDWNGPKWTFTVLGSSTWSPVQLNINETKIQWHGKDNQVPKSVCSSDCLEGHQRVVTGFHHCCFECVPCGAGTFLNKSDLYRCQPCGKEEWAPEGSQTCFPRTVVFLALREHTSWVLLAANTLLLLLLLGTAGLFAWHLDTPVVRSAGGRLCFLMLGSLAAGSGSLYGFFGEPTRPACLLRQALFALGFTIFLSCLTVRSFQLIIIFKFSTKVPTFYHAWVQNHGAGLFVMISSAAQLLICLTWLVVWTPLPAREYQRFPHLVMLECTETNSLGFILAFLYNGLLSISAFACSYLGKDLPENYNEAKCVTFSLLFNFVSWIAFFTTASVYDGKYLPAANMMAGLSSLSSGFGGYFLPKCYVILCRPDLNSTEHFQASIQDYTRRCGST
T1 sequence (Q923K1 21-858): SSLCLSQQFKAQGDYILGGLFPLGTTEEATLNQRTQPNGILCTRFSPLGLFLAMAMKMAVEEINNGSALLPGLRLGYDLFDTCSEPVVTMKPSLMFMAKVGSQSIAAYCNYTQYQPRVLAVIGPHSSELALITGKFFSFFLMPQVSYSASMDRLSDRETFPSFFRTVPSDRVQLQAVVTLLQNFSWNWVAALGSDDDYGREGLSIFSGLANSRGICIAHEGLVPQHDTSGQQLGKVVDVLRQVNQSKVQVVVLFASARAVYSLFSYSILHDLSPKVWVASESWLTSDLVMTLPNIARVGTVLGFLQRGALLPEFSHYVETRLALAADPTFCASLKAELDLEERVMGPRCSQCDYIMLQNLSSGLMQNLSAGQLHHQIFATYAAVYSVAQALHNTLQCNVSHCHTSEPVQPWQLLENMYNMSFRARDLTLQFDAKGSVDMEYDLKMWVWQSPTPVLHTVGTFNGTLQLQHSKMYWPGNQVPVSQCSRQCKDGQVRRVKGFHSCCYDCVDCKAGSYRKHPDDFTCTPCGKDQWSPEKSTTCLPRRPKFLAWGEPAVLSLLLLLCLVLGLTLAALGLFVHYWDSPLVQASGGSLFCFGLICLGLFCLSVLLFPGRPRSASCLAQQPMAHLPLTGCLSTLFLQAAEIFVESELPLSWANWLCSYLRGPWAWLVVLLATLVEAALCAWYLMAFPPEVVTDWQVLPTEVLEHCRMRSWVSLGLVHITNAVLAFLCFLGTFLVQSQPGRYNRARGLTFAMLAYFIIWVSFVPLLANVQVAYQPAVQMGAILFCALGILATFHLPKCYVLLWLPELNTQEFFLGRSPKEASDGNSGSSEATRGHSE
Experiment: Calcium assay, hTAS1R1 mutant co-expressed with rTAS1R3
Format: cell-based, human, rat

SMILES | EC50 [mM] | Max ∆F/F0 (A170W, GSH) | R1 = mutant EC50/WT EC50 (A170W, GSH) | response to the agonist alone, vs WT (A170W)
N[C@@H](CCC(=O)N[C@@H](CS)C(=O)NCC(=O)O)C(=O)O [GSH, γ-L-glutamyl-L-cysteinyl-glycine] | 5.29 ± 1.56 | 0.09 ± 0.01 | 2.1 | 
N[C@@H](CCC(=O)O)C(=O)O [L-Glu, L-glutamic acid, reference compound] |  |  |  | completely suppressed
